# Measured values: paper PMC8986778, “Citrullination of glucokinase is linked to autoimmune diabetes” (Nature Communications, 2022)
# Non-standard residues stand in square brackets, D forms with d. Residues, ends and D or L forms follow the SMILES beside them. Cit = NC(=O)NCCC[C@H](N)C(=O)O
# Target: T1, DR0401 protein (Homo sapiens, UniProt P01903+P01911, A100K/A169T/F76Y/I96L/K127E/L162R/M171V/N62H/P40V/Q125Y/R42H/S133A/S149N/S66Y/V115G/V209L/W38E)
# T1 construct: made in house; host or cells: insect cell cultures
# Test: DR0401 peptide binding competition assay
# Conditions: Supplementary Table 2; competition with biotin-HA306-318 0.02 μM; read-out: IC50 (Binding of Predicted Glucokinase Peptides to DR04:01)
row,Structure (SMILES),IC50 [µM]
1,CSCC[C@H](NC(=O)[C@H](CCCCN)NC(=O)[C@@H](NC(=O)[C@@H](N)CO)C(C)C)C(=O)N[C@@H](CC(C)C)C(=O)N1CCC[C@H]1C(=O)N[C@H](C(=O)N[C@@H](Cc1ccc(O)cc1)C(=O)N[C@H](C(=O)N[C@@H](CCCNC(N)=O)C(=O)N[C@@H](CO)C(=O)N[C@H](C(=O)N1CCC[C@H]1C(=O)N[C@@H](CCC(=O)O)C(=O)NCC(=O)O)[C@@H](C)O)C(C)C)[C@@H](C)O [GK 54-68] (H-SVKMLPTYV[Cit]STPEG-OH; N-terminus and C-terminus assumed),> 50
2,CSCC[C@H](NC(=O)[C@@H](NC(=O)[C@H](CCCNC(=N)N)NC(=O)[C@H](Cc1ccccc1)NC(=O)[C@H](CC(N)=O)NC(=O)[C@@H](NC(=O)CN)[C@@H](C)O)C(C)C)C(=O)N[C@@H](CC(C)C)C(=O)N[C@H](C(=O)N[C@@H](CCCCN)C(=O)N[C@H](C(=O)NCC(=O)N[C@@H](CCC(=O)O)C(=O)NCC(=O)N[C@@H](CCC(=O)O)C(=O)O)C(C)C)C(C)C [GK 81-95] (H-GTNFRVMLVKVGEGE-OH),15.3
3,CC[C@H](C)[C@H](NC(=O)[C@H](CS)NC(=O)[C@H](CCC(=O)O)NC(=O)[C@H](CO)NC(=O)[C@@H](NC(=O)[C@H](Cc1ccc(O)cc1)NC(=O)[C@H](CC(=O)O)NC(=O)[C@H](Cc1ccccc1)NC(=O)[C@H](CC(C)C)NC(=O)[C@H](CCSC)NC(=O)[C@@H](N)CCC(=O)O)[C@@H](C)CC)C(=O)N[C@@H](CO)C(=O)N[C@@H](CC(=O)O)C(=O)N[C@@H](Cc1ccccc1)C(=O)N[C@@H](CC(C)C)C(=O)O [GK 120-134] (H-EMLFDYISECISDFL-OH),40.1
4,CSCC[C@H](NC(=O)[C@H](Cc1ccc(O)cc1)NC(=O)[C@H](CS)NC(=O)[C@H](C)NC(=O)[C@@H](N)CC(N)=O)C(=O)N[C@@H](CCC(=O)O)C(=O)N[C@@H](CCC(=O)O)C(=O)N[C@@H](CCSC)C(=O)N[C@@H](CCC(N)=O)C(=O)N[C@@H](CC(N)=O)C(=O)N[C@H](C(=O)N[C@@H](CCC(=O)O)C(=O)N[C@@H](CC(C)C)C(=O)N[C@H](C(=O)N[C@@H](CCC(=O)O)C(=O)O)C(C)C)C(C)C [GK 231-245] (H-NACYMEEMQNVELVE-OH),0.03
5,CSCC[C@H](NC(=O)[C@H](Cc1ccc(O)cc1)NC(=O)[C@H](CCCCN)NC(=O)CNC(=O)CN)C(=O)NCC(=O)N[C@@H](CCC(=O)O)C(=O)N[C@@H](CC(C)C)C(=O)N[C@H](C(=O)N[C@@H](CCCNC(N)=O)C(=O)N[C@@H](CC(C)C)C(=O)N[C@H](C(=O)N[C@@H](CC(C)C)C(=O)N[C@@H](CC(C)C)C(=O)N[C@@H](CCCNC(=N)N)C(=O)O)C(C)C)C(C)C [GK 294-308] (H-GGKYMGELV[Cit]LVLLR-OH),4.3
6,CC(C)C[C@H](NC(=O)[C@H](CCC(N)=O)NC(=O)[C@H](CCC(=O)O)NC(=O)[C@H](CO)NC(=O)[C@H](C)NC(=O)[C@H](CCC(=O)O)NC(=O)CNC(=O)[C@H](Cc1c[nH]cn1)NC(=O)[C@H](Cc1ccccc1)NC(=O)[C@H](CC(C)C)NC(=O)[C@H](CC(C)C)NC(=O)[C@H](CC(N)=O)NC(=O)[C@H](CCC(=O)O)NC(=O)[C@@H](N)CC(=O)O)C(=O)O [GK 311-324] (H-DENLLFHGEASEQL-OH; N-terminus and C-terminus assumed),> 50
7,CC(C)C[C@H](NC(=O)[C@H](CCC(N)=O)NC(=O)[C@H](CCC(=O)O)NC(=O)[C@H](CO)NC(=O)[C@H](C)NC(=O)[C@H](CCC(=O)O)NC(=O)CNC(=O)[C@H](Cc1c[nH]cn1)NC(=O)[C@H](Cc1ccccc1)NC(=O)[C@H](CC(C)C)NC(=O)[C@H](CC(C)C)NC(=O)[C@@H](N)CC(N)=O)C(=O)N[C@@H](CCCNC(N)=O)C(=O)N[C@H](C(=O)N[C@@H](CCCNC(=N)N)C(=O)O)[C@@H](C)O [GK 313-327] (H-NLLFHGEASEQL[Cit]TR-OH; N-terminus and C-terminus assumed),> 50
8,CC(C)[C@H](NC(=O)[C@H](CCC(N)=O)NC(=O)[C@H](CO)NC(=O)[C@@H](NC(=O)[C@H](Cc1ccccc1)NC(=O)[C@H](CCCNC(N)=O)NC(=O)[C@@H](NC(=O)[C@H](CCC(=O)O)NC(=O)[C@H](Cc1ccccc1)NC(=O)[C@H](C)NC(=O)CNC(=O)[C@@H](N)CCCNC(=N)N)[C@@H](C)O)C(C)C)C(=O)N[C@@H](CCC(=O)O)C(=O)N[C@@H](CO)C(=O)N[C@@H](CC(=O)O)C(=O)O [GK 327-341] (H-RGAFET[Cit]FVSQVESD-OH; N-terminus and C-terminus assumed),> 50
9,CC(C)[C@H](NC(=O)[C@H](CCC(N)=O)NC(=O)[C@H](CO)NC(=O)[C@@H](NC(=O)[C@H](Cc1ccccc1)NC(=O)[C@H](CCCNC(N)=O)NC(=O)[C@@H](NC(=O)[C@@H](N)CCC(=O)O)[C@@H](C)O)C(C)C)C(=O)N[C@@H](CCC(=O)O)C(=O)N[C@@H](CO)C(=O)N[C@@H](CC(=O)O)C(=O)N[C@H](C(=O)NCC(=O)N[C@@H](CC(=O)O)C(=O)O)[C@@H](C)O [GK 331-344] (H-ET[Cit]FVSQVESDTGD-OH; N-terminus and C-terminus assumed),> 50

# The remaining lines, values ahead:
row,IC50 [µM],Structure (SMILES)
1,> 50,CSCC[C@H](NC(=O)[C@H](CCCCN)NC(=O)[C@@H](NC(=O)[C@H](CO)NC(=O)[C@H](C)NC(=O)[C@H](CCC(=O)O)NC(=O)[C@H](CCC(=O)O)NC(=O)[C@H](Cc1c[nH]cn1)NC(=O)[C@@H](NC(=O)[C@H](CCC(=O)O)NC(=O)[C@H](CC(C)C)NC(=O)[C@H](CCCNC(N)=O)NC(=O)[C@H](CC(C)C)NC(=O)CN)[C@@H](C)O)C(C)C)C(=O)N[C@@H](CC(C)C)C(=O)O [GK 44-58] (H-GL[Cit]LETHEEASVKML-OH; N-terminus and C-terminus assumed)
2,30.9,CC(C)C[C@H](N)C(=O)N1CCC[C@H]1C(=O)N[C@H](C(=O)N[C@@H](Cc1ccc(O)cc1)C(=O)N[C@H](C(=O)N[C@@H](CCCNC(N)=O)C(=O)N[C@@H](CO)C(=O)N[C@H](C(=O)N1CCC[C@H]1C(=O)N[C@@H](CCC(=O)O)C(=O)NCC(=O)N[C@@H](CO)C(=O)N[C@@H](CCC(=O)O)C(=O)N[C@H](C(=O)NCC(=O)O)C(C)C)[C@@H](C)O)C(C)C)[C@@H](C)O [GK 58-72] (H-LPTYV[Cit]STPEGSEVG-OH)

# Same assay, conditions: Supplementary Table 3; competition with biotin-HA306-318 0.02 μM; representative values from two replicate experiments; read-out: IC50 (Effect of Citrulline or Arg Substitution)
row,IC50 [µM],Structure (SMILES)
1,9.5,CC(C)C[C@H](NC(=O)[C@H](CC(C)C)NC(=O)[C@H](Cc1ccccc1)NC(=O)[C@H](CCC(=O)O)NC(=O)[C@H](CC(=O)O)NC(=O)[C@@H](N)CC(C)C)C(=O)N[C@@H](CCC(=O)O)C(=O)N[C@@H](Cc1ccc(O)cc1)C(=O)N[C@@H](CC(=O)O)C(=O)N[C@@H](CCCNC(N)=O)C(=O)N[C@@H](CC(C)C)C(=O)N[C@H](C(=O)N[C@@H](CC(=O)O)C(=O)N[C@@H](CCC(=O)O)C(=O)N[C@@H](CO)C(=O)O)C(C)C [GK 266 Cit] (H-LDEFLLEYD[Cit]LVDES-OH)
2,8.6,CC(C)C[C@H](NC(=O)[C@H](CCCNC(N)=O)NC(=O)[C@H](CC(=O)O)NC(=O)[C@H](Cc1ccc(O)cc1)NC(=O)[C@H](CCC(=O)O)NC(=O)[C@H](CC(C)C)NC(=O)[C@@H](N)CC(C)C)C(=O)N[C@H](C(=O)N[C@@H](CC(=O)O)C(=O)N[C@@H](CCC(=O)O)C(=O)N[C@@H](CO)C(=O)N[C@@H](CO)C(=O)N[C@@H](C)C(=O)N[C@@H](CC(N)=O)C(=O)N1CCC[C@H]1C(=O)O)C(C)C [GK 270 Cit] (H-LLEYD[Cit]LVDESSANP-OH)
3,0.47,CC[C@H](C)[C@H](NC(=O)[C@H](CC(N)=O)NC(=O)[C@H](Cc1ccc(O)cc1)NC(=O)[C@@H](NC(=O)[C@H](CCC(N)=O)NC(=O)[C@@H](N)CCCCN)[C@@H](C)CC)C(=O)N[C@@H](CC(C)C)C(=O)N[C@@H](CO)C(=O)N[C@H](C(=O)N[C@@H](CC(C)C)C(=O)NCC(=O)N[C@@H](CC(C)C)C(=O)N[C@@H](CCCNC(=N)N)C(=O)N1CCC[C@H]1C(=O)N[C@@H](CO)C(=O)O)[C@@H](C)O [GK 346 WT] (H-KQIYNILSTLGLRPS-OH)

# Same assay, conditions: Table 1; competition with biotinylated HA306-318 reference peptide at 0.02 μM in DR0401-coated wells; europium-streptavidin time resolved fluorescence; concentration that displaces half of the reference peptide; read-out: IC50 (binding to DR0401)
row,IC50 [µM],Structure (SMILES)
1,0.35,CSCC[C@H](NC(=O)[C@H](C)NC(=O)[C@@H](NC(=O)[C@@H](NC(=O)[C@H](CC(=O)O)NC(=O)[C@H](CCSC)NC(=O)[C@H](CCC(=O)O)NC(=O)[C@H](Cc1ccccc1)NC(=O)[C@H](CC(=O)O)NC(=O)CNC(=O)[C@@H](N)CCCNC(=N)N)C(C)C)C(C)C)C(=O)N[C@H](C(=O)N[C@@H](CC(N)=O)C(=O)N[C@@H](CC(=O)O)C(=O)N[C@H](C(=O)O)[C@@H](C)O)C(C)C [GK 192] (H-RGDFEMDVVAMVNDT-OH)
2,2.5,CC[C@H](C)[C@H](NC(=O)[C@H](CCSC)NC(=O)[C@@H](NC(=O)[C@H](C)NC(=O)[C@@H](NC(=O)[C@@H](NC(=O)[C@H](CC(=O)O)NC(=O)[C@H](CC(N)=O)NC(=O)[C@@H](NC(=O)[C@H](CCSC)NC(=O)[C@H](C)NC(=O)[C@@H](NC(=O)[C@@H](N)C(C)C)C(C)C)C(C)C)[C@@H](C)O)C(C)C)[C@@H](C)O)C(=O)N[C@@H](CO)C(=O)N[C@@H](CS)C(=O)N[C@@H](Cc1ccc(O)cc1)C(=O)O [GK 199] (H-VVAMVNDTVATMISCY-OH)
3,5.6,CC(C)C[C@H](NC(=O)[C@H](CC(C)C)NC(=O)[C@H](Cc1ccccc1)NC(=O)[C@H](CCC(=O)O)NC(=O)[C@H](CC(=O)O)NC(=O)[C@@H](N)CC(C)C)C(=O)N[C@@H](CCC(=O)O)C(=O)N[C@@H](Cc1ccc(O)cc1)C(=O)N[C@@H](CC(=O)O)C(=O)N[C@@H](CCCNC(=N)N)C(=O)N[C@@H](CC(C)C)C(=O)N[C@H](C(=O)N[C@@H](CC(=O)O)C(=O)N[C@@H](CCC(=O)O)C(=O)N[C@@H](CO)C(=O)O)C(C)C [GK 266] (H-LDEFLLEYDRLVDES-OH)
4,2,CC(C)C[C@H](NC(=O)[C@H](CCCNC(=N)N)NC(=O)[C@H](CC(=O)O)NC(=O)[C@H](Cc1ccc(O)cc1)NC(=O)[C@H](CCC(=O)O)NC(=O)[C@H](CC(C)C)NC(=O)[C@@H](N)CC(C)C)C(=O)N[C@H](C(=O)N[C@@H](CC(=O)O)C(=O)N[C@@H](CCC(=O)O)C(=O)N[C@@H](CO)C(=O)N[C@@H](CO)C(=O)N[C@@H](C)C(=O)N[C@@H](CC(N)=O)C(=O)N1CCC[C@H]1C(=O)O)C(C)C [GK 270] (H-LLEYDRLVDESSANP-OH)
